Test results taken from patent US20260022142A1, “MACROCYCLIC IMMUNOMODULATORS” (Bristol-Myers Squibb Company, priority 2022, published 2026).
Bridge positions count the residues as written; N and C are the ends. Square brackets hold non-standard residues; d marks the D form. Peptide text beside a SMILES is read from it. * marks the point of attachment. ξ: configuration not given here. Phe(4-CONH2) = NC(=O)c1ccc(C[C@H](N)C(=O)O)cc1; Phe(4-COOH) = N[C@@H](Cc1ccc(C(=O)O)cc1)C(=O)O; Bip = N[C@@H](Cc1ccc(-c2ccccc2)cc1)C(=O)O; Phe(4-CN) = N#Cc1ccc(C[C@H](N)C(=O)O)cc1; Phe(3-Me) = Cc1cccc(C[C@H](N)C(=O)O)c1; Phe(4-F) = N[C@@H](Cc1ccc(F)cc1)C(=O)O; Val(3-OH) = CC(C)(O)[C@H](N)C(=O)O; 4Pal = N[C@@H](Cc1ccncc1)C(=O)O; Cha = N[C@@H](CC1CCCCC1)C(=O)O; Thr(3ξ) = CC(O)[C@H](N)C(=O)O; Carboxymethyl = O=C(O)C*; Nle = CCCC[C@H](N)C(=O)O; Orn = NCCC[C@H](N)C(=O)O; Aun = NCCCCCCCCCCC(=O)O; Dab = NCC[C@H](N)C(=O)O; Nva = CCC[C@H](N)C(=O)O; Abu = CC[C@H](N)C(=O)O; AEEA = NCCOCCOCC(=O)O

Biological target: T1, PD-1/PD-L1 interaction (PE-labeled human PD-L1-Ig binding to Jurkat cell line over-expressing human PD-1) (Homo sapiens, UniProt Q15116)
T1 construct: expressed in transfected cells; host or cells: Jurkat
T1 sequence (Q15116 25-288): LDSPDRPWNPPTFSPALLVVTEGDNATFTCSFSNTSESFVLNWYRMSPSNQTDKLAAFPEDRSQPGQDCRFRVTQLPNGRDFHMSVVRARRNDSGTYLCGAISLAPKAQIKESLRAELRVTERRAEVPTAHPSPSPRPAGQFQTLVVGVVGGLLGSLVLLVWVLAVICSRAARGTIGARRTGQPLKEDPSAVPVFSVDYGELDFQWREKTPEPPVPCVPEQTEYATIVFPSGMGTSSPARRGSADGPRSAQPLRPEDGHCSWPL
Test: Jurkat-PD-1 Cell Binding High-Content Screening Assay (CBA)
Type: cell-based
Conditions: Jurkat cell line over-expressing human PD-1; PE-labeled PD-L1-Ig 20 nM final; read-out: Jurkat hPD1-PDL1 IC50
Outline: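 Binding of fluorescent PD-L1-Ig (phycoerythrin on Ig tag, 20 nM final, 1 h) measured by high-content imaging of fixed, Hoechst-counterstained Jurkat-hPD-1 cells. Compound added 2 h at 37° C beforehand, in DMEM with 10% fetal calf serum.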

Cc1cccc(C[C@@H]2NC(=O)[C@H](CC(=O)O)NC(=O)[C@H](Cc3ccc(C#N)cc3)NC(=O)[C@H](C(C)O)NC(=O)CSC[C@@H](C(=O)N[C@@H](CCN)C(=O)NCCOCCOCC(=O)NCCOCCOCC(=O)NCCCCCCCCCCC(=O)O)NC(=O)[C@H](Cc3cnc[nH]3)NC(=O)[C@H](C(C)O)NC(=O)[C@H](CC3CCCCC3)NC(=O)[C@H](CCN)NC(=O)[C@@H](CC(C)C)NC(=O)[C@H](CCCN)NC(=O)[C@H](Cc3ccc(OCC(=O)O)cc3)NC(=O)[C@H](Cc3ccc(-c4ccccc4)cc3)NC(=O)[C@H](Cc3ccc(OCC(=O)O)cc3)NC2=O)c1 (stereo partly drawn) [Compound 3774] ({CH2CO}-[Thr(3ξ)][Phe(4-CN)]D[Phe(3-Me)]Y(Carboxymethyl)[Bip]Y(Carboxymethyl)[Orn][dL][Dab][Cha][Thr(3ξ)]HC[Dab][AEEA][AEEA][Aun]-OH; thioether N-14)
IC50: 6.3 nM

Cc1cccc(C[C@@H]2NC(=O)[C@H](CC(=O)O)NC(=O)[C@H](Cc3ccc(C(=O)O)cc3)NC(=O)[C@H](C(C)O)NC(=O)CSC[C@@H](C(=O)N[C@@H](CCN)C(=O)NCCOCCOCC(=O)NCCOCCOCC(=O)NCCCCCCCCCCC(=O)O)NC(=O)[C@H](CO)NC(=O)[C@H](C(C)O)NC(=O)[C@H](CC3CCCCC3)NC(=O)[C@H](CCN)NC(=O)[C@@H](CC(C)C)NC(=O)[C@H](CCCN)NC(=O)[C@H](Cc3ccc(C(=O)O)cc3)NC(=O)[C@H](Cc3ccc(-c4ccccc4)cc3)NC(=O)[C@H](Cc3ccc(C(=O)O)cc3)NC2=O)c1 (stereo partly drawn) [Compound 3775] ({CH2CO}-[Thr(3ξ)][Phe(4-COOH)]D[Phe(3-Me)][Phe(4-COOH)][Bip][Phe(4-COOH)][Orn][dL][Dab][Cha][Thr(3ξ)]SC[Dab][AEEA][AEEA][Aun]-OH; thioether N-14)
IC50: 5.8 nM

Cc1cccc(C[C@@H]2NC(=O)[C@H](CC(=O)O)NC(=O)[C@H](Cc3ccc(C#N)cc3)NC(=O)[C@H](C(C)O)NC(=O)CSC[C@@H](C(=O)N[C@@H](CCN)C(=O)NCCOCCOCC(=O)NCCCCCCCCCCC(=O)O)NC(=O)[C@H](Cc3cnc[nH]3)NC(=O)[C@H](C(C)(C)O)NC(=O)[C@H](CC3CCCCC3)NC(=O)[C@H](CCN)NC(=O)[C@@H](CC(C)C)NC(=O)[C@H](CCCN)NC(=O)[C@H](Cc3ccc(OCC(=O)O)cc3)NC(=O)[C@H](Cc3ccc(-c4ccccc4)cc3)NC(=O)[C@H](Cc3ccc(OCC(=O)O)cc3)NC2=O)c1 (stereo partly drawn) [Compound 3776] ({CH2CO}-[Thr(3ξ)][Phe(4-CN)]D[Phe(3-Me)]Y(Carboxymethyl)[Bip]Y(Carboxymethyl)[Orn][dL][Dab][Cha][Val(3-OH)]HC[Dab][AEEA][Aun]-OH; thioether N-14)
IC50: 3.6 nM

Cc1cccc(C[C@@H]2NC(=O)[C@H](CC(=O)O)NC(=O)[C@H](Cc3ccc(C(=O)O)cc3)NC(=O)[C@H](C(C)O)NC(=O)CSC[C@@H](C(=O)N[C@@H](CCN)C(=O)NCCOCCOCC(=O)NCCOCCOCC(=O)NCCCCCCCCCCC(=O)O)NC(=O)[C@H](CO)NC(=O)[C@H](C(C)(C)O)NC(=O)[C@H](CC3CCCCC3)NC(=O)[C@H](CCN)NC(=O)[C@@H](CC(C)C)NC(=O)[C@H](CCCN)NC(=O)[C@H](Cc3ccc(C(=O)O)cc3)NC(=O)[C@H](Cc3ccc(-c4ccccc4)cc3)NC(=O)[C@H](Cc3ccc(C(=O)O)cc3)NC2=O)c1 (stereo partly drawn) [Compound 3777] ({CH2CO}-[Thr(3ξ)][Phe(4-COOH)]D[Phe(3-Me)][Phe(4-COOH)][Bip][Phe(4-COOH)][Orn][dL][Dab][Cha][Val(3-OH)]SC[Dab][AEEA][AEEA][Aun]-OH; thioether N-14)
IC50: 3.4 nM

Cc1cccc(C[C@@H]2NC(=O)[C@H](CC(=O)O)NC(=O)[C@H](Cc3ccc(C(=O)O)cc3)NC(=O)[C@H](Cc3ccncc3)NC(=O)CSC[C@@H](C(=O)N[C@@H](CCN)C(=O)NCCOCCOCC(=O)NCCCCCCCCCCC(=O)O)NC(=O)[C@H](CO)NC(=O)[C@H](C(C)(C)O)NC(=O)[C@H](CC3CCCCC3)NC(=O)[C@H](CCN)NC(=O)[C@@H](CC(C)C)NC(=O)[C@H](CCCN)NC(=O)[C@H](CCC(N)=O)NC(=O)[C@H](Cc3ccc(-c4ccccc4)cc3)NC(=O)[C@H](Cc3ccc(C(N)=O)cc3)NC2=O)c1 [Compound 3778] ({CH2CO}-[4Pal][Phe(4-COOH)]D[Phe(3-Me)][Phe(4-CONH2)][Bip]Q[Orn][dL][Dab][Cha][Val(3-OH)]SC[Dab][AEEA][Aun]-OH; thioether N-14)
IC50: 26.6 nM

CC[C@@H]1NC(=O)CSC[C@@H](C(=O)N[C@@H](CCN)C(=O)NCCCCCCCCCCC(=O)O)NC(=O)[C@H](CCC(=O)O)NC(=O)[C@H](C(C)(C)O)NC(=O)[C@H](CC2CCCCC2)NC(=O)[C@H](CCN)NC(=O)[C@@H](CC(C)C)NC(=O)[C@H](CCCN)NC(=O)[C@H](Cc2ccc(OCC(=O)O)cc2)NC(=O)[C@H](Cc2ccc(-c3ccccc3)cc2)NC(=O)[C@H](Cc2ccc(OCC(=O)O)cc2)NC(=O)[C@H](Cc2cccc(C)c2)NC(=O)[C@H](CC(=O)O)NC(=O)[C@H](Cc2ccc(OCC(=O)O)cc2)NC1=O [Compound 3794] ({CH2CO}-[Abu]Y(Carboxymethyl)D[Phe(3-Me)]Y(Carboxymethyl)[Bip]Y(Carboxymethyl)[Orn][dL][Dab][Cha][Val(3-OH)]EC[Dab][Aun]-OH; thioether N-14)
IC50: 3.8 nM

CCC[C@@H]1NC(=O)CSC[C@@H](C(=O)N[C@@H](CCN)C(=O)NCCCCCCCCCCC(=O)O)NC(=O)[C@H](CCC(=O)O)NC(=O)[C@H](C(C)(C)O)NC(=O)[C@H](CC2CCCCC2)NC(=O)[C@H](CCN)NC(=O)[C@@H](CC(C)C)NC(=O)[C@H](CCCN)NC(=O)[C@H](Cc2ccc(OCC(=O)O)cc2)NC(=O)[C@H](Cc2ccc(-c3ccccc3)cc2)NC(=O)[C@H](Cc2ccc(OCC(=O)O)cc2)NC(=O)[C@H](Cc2cccc(C)c2)NC(=O)[C@H](CC(=O)O)NC(=O)[C@H](Cc2ccc(OCC(=O)O)cc2)NC1=O [Compound 3795] ({CH2CO}-[Nva]Y(Carboxymethyl)D[Phe(3-Me)]Y(Carboxymethyl)[Bip]Y(Carboxymethyl)[Orn][dL][Dab][Cha][Val(3-OH)]EC[Dab][Aun]-OH; thioether N-14)
IC50: 5.8 nM

CCCC[C@@H]1NC(=O)CSC[C@@H](C(=O)N[C@@H](CCN)C(=O)NCCCCCCCCCCC(=O)O)NC(=O)[C@H](CCC(=O)O)NC(=O)[C@H](C(C)(C)O)NC(=O)[C@H](CC2CCCCC2)NC(=O)[C@H](CCN)NC(=O)[C@@H](CC(C)C)NC(=O)[C@H](CCCN)NC(=O)[C@H](Cc2ccc(OCC(=O)O)cc2)NC(=O)[C@H](Cc2ccc(-c3ccccc3)cc2)NC(=O)[C@H](Cc2ccc(OCC(=O)O)cc2)NC(=O)[C@H](Cc2cccc(C)c2)NC(=O)[C@H](CC(=O)O)NC(=O)[C@H](Cc2ccc(OCC(=O)O)cc2)NC1=O [Compound 3796] ({CH2CO}-[Nle]Y(Carboxymethyl)D[Phe(3-Me)]Y(Carboxymethyl)[Bip]Y(Carboxymethyl)[Orn][dL][Dab][Cha][Val(3-OH)]EC[Dab][Aun]-OH; thioether N-14)
IC50: 1.9 nM

Cc1cccc(C[C@@H]2NC(=O)[C@H](CC(=O)O)NC(=O)[C@H](Cc3ccc(OCC(=O)O)cc3)NC(=O)[C@H](CCN)NC(=O)CSC[C@@H](C(=O)N[C@@H](CCN)C(=O)NCCOCCOCC(=O)NCCCCCCCCCCC(=O)O)NC(=O)[C@H](CCC(=O)O)NC(=O)[C@H](C(C)O)NC(=O)[C@H](CC3CCCCC3)NC(=O)[C@H](CCN)NC(=O)[C@@H](CC(C)C)NC(=O)[C@H](CCCN)NC(=O)[C@H](Cc3ccc(OCC(=O)O)cc3)NC(=O)[C@H](Cc3ccc(-c4ccccc4)cc3)NC(=O)[C@H](Cc3ccc(OCC(=O)O)cc3)NC2=O)c1 (stereo partly drawn) [Compound 3797] ({CH2CO}-[Dab]Y(Carboxymethyl)D[Phe(3-Me)]Y(Carboxymethyl)[Bip]Y(Carboxymethyl)[Orn][dL][Dab][Cha][Thr(3ξ)]EC[Dab][AEEA][Aun]-OH; thioether N-14)
IC50: 2.1 nM

Cc1cccc(C[C@@H]2NC(=O)[C@H](CC(=O)O)NC(=O)[C@H](Cc3ccc(OCC(=O)O)cc3)NC(=O)[C@H](Cc3ccc(F)cc3)NC(=O)CSC[C@@H](C(=O)N[C@@H](CCN)C(=O)NCCCCCCCCCCC(=O)O)NC(=O)[C@H](Cc3cnc[nH]3)NC(=O)[C@H](C(C)(C)O)NC(=O)[C@H](CC3CCCCC3)NC(=O)[C@H](CCN)NC(=O)[C@@H](CC(C)C)NC(=O)[C@H](CCCN)NC(=O)[C@H](Cc3ccc(OCC(=O)O)cc3)NC(=O)[C@H](Cc3ccc(-c4ccccc4)cc3)NC(=O)[C@H](Cc3ccc(OCC(=O)O)cc3)NC2=O)c1 [Compound 3798] ({CH2CO}-[Phe(4-F)]Y(Carboxymethyl)D[Phe(3-Me)]Y(Carboxymethyl)[Bip]Y(Carboxymethyl)[Orn][dL][Dab][Cha][Val(3-OH)]HC[Dab][Aun]-OH; thioether N-14)
IC50: 28.4 nM

Cc1cccc(C[C@@H]2NC(=O)[C@H](CC(=O)O)NC(=O)[C@H](Cc3ccc(OCC(=O)O)cc3)NC(=O)[C@H](Cc3ccc(F)cc3)NC(=O)CSC[C@@H](C(=O)N[C@@H](CCN)C(=O)NCCOCCOCC(=O)NCCCCCCCCCCC(=O)O)NC(=O)[C@H](CC(=O)O)NC(=O)[C@H](C(C)C)NC(=O)[C@H](CC3CCCCC3)NC(=O)[C@H](CCN)NC(=O)[C@@H](CC(C)C)NC(=O)[C@H](CCCN)NC(=O)[C@H](Cc3ccc(OCC(=O)O)cc3)NC(=O)[C@H](Cc3ccc(-c4ccccc4)cc3)NC(=O)[C@H](Cc3ccc(OCC(=O)O)cc3)NC2=O)c1 [Compound 3799] ({CH2CO}-[Phe(4-F)]Y(Carboxymethyl)D[Phe(3-Me)]Y(Carboxymethyl)[Bip]Y(Carboxymethyl)[Orn][dL][Dab][Cha]VDC[Dab][AEEA][Aun]-OH; thioether N-14)
IC50: 11.1 nM

Cc1cccc(C[C@@H]2NC(=O)[C@H](CC(=O)O)NC(=O)[C@H](Cc3ccc(OCC(=O)O)cc3)NC(=O)[C@H](Cc3ccc(F)cc3)NC(=O)CSC[C@@H](C(=O)N[C@@H](CCN)C(=O)NCCOCCOCC(=O)NCCCCCCCCCCC(=O)O)NC(=O)[C@H](CCC(=O)O)NC(=O)[C@H](C(C)C)NC(=O)[C@H](CC3CCCCC3)NC(=O)[C@H](CCN)NC(=O)[C@@H](CC(C)C)NC(=O)[C@H](CCCN)NC(=O)[C@H](Cc3ccc(OCC(=O)O)cc3)NC(=O)[C@H](Cc3ccc(-c4ccccc4)cc3)NC(=O)[C@H](Cc3ccc(OCC(=O)O)cc3)NC2=O)c1 [Compound 3800] ({CH2CO}-[Phe(4-F)]Y(Carboxymethyl)D[Phe(3-Me)]Y(Carboxymethyl)[Bip]Y(Carboxymethyl)[Orn][dL][Dab][Cha]VEC[Dab][AEEA][Aun]-OH; thioether N-14)
IC50: 12.1 nM
